Test results taken from patent publication US20200268703A1, “MEDICINE FOR TREATING ADVANCED OR RECURRENT CANCER PATIENT BEING NON-RESPONSIVE OR NON-TOLERANT TO STANDARD CHEMOTHERAPY AND INCURABLE AND UNRESECTABLE” (HYOGO COLLEGE OF MEDICINE, priority 2017, published 2020).
Values joined by “and” are separate entries in the source; they are usually repeats but may differ in a detail not shown here. Equal values may be shown once.

Test system: advanced or recurrent gastric cancer which is non-responsive or non-tolerant to standard chemotherapy and incurable and unresectable
Assay: Clinical trial of propagermanium in patients with advanced or recurrent gastric cancer (OS, PFS, lung metastasis imaging)
Assay type: in vivo, human
Conditions: for OS / PFS: 30 mg orally per day
Description: 30 mg of propagermanium [trade name: SEROCION (registered trademark), produced by SANWA KAGAKU KENKYUSHO CO., LTD.] was administered orally in three divided doses per day after meals to 13 patient cases (P-1 to P-13) who were diagnosed as advanced or recurrent gastric cancer which is non-responsive or non-tolerant to standard chemotherapy [gastric cancer treatment guideline fourth edition (edited by Japan Gastric cancer Association, revised in May 2014)] and incurable and unresectable, and a clinical trial was conducted with overall survival (hereinafter also referred to as “OS”) and progression-free survival (hereinafter also referred to as “PFS”) as evaluation items. This clinical trial was conducted under an approval of Ethics Committee of Hyogo College of Medicine (No. 1911). The ECOG performance status (hereinafter also referred to as “PS”), the OS, and the PFS of 13 patient cases are shown in Table 1.
On the other hand, in Hyogo College of Medicine Hospital from 2009 to 2011, in 62 cases which were diagnosed as advanced gastric cancer which is non-responsive or non-tolerant to standard chemotherapy and incurable and unresectable and for which palliative care (Best Supportive Care; hereinafter “BSC”) to reduce pain was provided, the median of OS from the time when a doctor explained BSC to the patient was 22 days.
13 Patient cases in which the propagermanium was administered and 62 patient cases in which the BSC was provided were divided into two groups of (A) 0 and 1 and (B) 2 and 3 according to PS thereof. In the two groups, medians of the OS in the propagermanium administration examples and BSC examples were compared. As a result, in the patient groups whose PS was (A) 0 and 1, the median of OS in the BSC examples was 23.5 days, whereas the median of OS in the propagermanium administration examples was 163 days. The survival time was extended approximately 7 times compared to the BSC examples. […] Accordingly, it was confirmed that the survival days were extended compared to the BSC examples.
In 13 patient cases in which the propagermanium was administered, mean values of OS were compared according to the presence and absence of the peritoneal metastasis (Table 2 and FIG. 4). As a result, the mean value of OS of 8 patient cases with the peritoneal metastasis was 81.1 days, whereas the mean value of OS of 5 patient cases without the peritoneal metastasis was 164.7 days. […] In addition, 13 patient cases in which the propagermanium was administered were divided into two groups of (C) 0 and 1 and (D) 2 and 3 according to the PS thereof. In the two groups, mean values of the OS were compared according to the presence or absence of the peritoneal metastasis (Table 2 and FIG. 4). As a result, in the patient group whose PS was (C) 0 and 1, the mean value of OS of 4 cases with the peritoneal metastasis was 139 days, whereas the mean value of OS of 3 cases without the peritoneal metastasis was 273 days. […] On the other hand, in the patient group whose PS was (D) 2 and 3, the mean value of OS of 4 cases with the peritoneal metastasis was 37.8 days, whereas the mean value of OS of 2 cases without the peritoneal metastasis was 56.3 days.

propagermanium
Median of PFS (13 patient cases): 49 days | Median of OS (13 patient cases, BSC examples (62 cases) 22 days): 73 days | Kaplan Meier survival curves of OS versus BSC (FIG. 1) (13 propagermanium cases versus 62 BSC cases): significant life prolongation effect | Mean value of OS ((C) PS 0 and 1, with peritoneal metastasis, 4 cases): 139 days and 139 (4) days | Mean value of OS ((C) PS 0 and 1, without peritoneal metastasis, 3 cases): 273 days and 273 (3) days | Mean value of OS ((D) PS 2 and 3, with peritoneal metastasis, 4 cases): 37.8 days and 37.8 (4) days | Mean value of OS ((D) PS 2 and 3, without peritoneal metastasis, 2 cases): 56.3 days and 56.3 (2) days | OS without versus with peritoneal metastasis (all 13 propagermanium patient cases): significant life prolongation effect | Mean value of OS (all patients, with peritoneal metastasis, 8 cases): 81.1 days and 81.1 (8) days | Mean value of OS (all patients, without peritoneal metastasis, 5 cases): 164.7 days and 164.7 (5) days | OS (patient P-1, PS 2): 76 days | PFS (patient P-1, PS 2): 56 days | OS (patient P-2, PS 3): 34 days | PFS (patient P-2, PS 3): 3 days | OS (patient P-3, PS 0): 344 days | PFS (patient P-3, PS 0): 336 days | OS (patient P-4, PS 2): 72 days | PFS (patient P-4, PS 2): 28 days | Lesion site of lung (lung metastasis), imaging (FIG. 5) (patient P-5, 357th day after starting administration): scar was formed | PFS (patient P-5, PS 1): 392 days | Lesion site of lung (lung metastasis), imaging (FIG. 5) (patient P-5, from the 35th day after starting administration): reduction was observed | OS (patient P-6, PS 3): 36 days | PFS (patient P-6, PS 3): 22 days | OS (patient P-7, PS 0): 83 days | PFS (patient P-7, PS 0): 49 days | OS (patient P-8, PS 1): 73 days | PFS (patient P-8, PS 1): 73 days | OS (patient P-9, PS 3): 30 days | PFS (patient P-9, PS 3): 21 days | OS (patient P-10, PS 2): 11 days | PFS (patient P-10, PS 2): 7 days | OS (patient P-11, PS 0): 163 days | PFS (patient P-11, PS 0): 159 days | OS (patient P-12, PS 1): 181 days | PFS (patient P-12, PS 1): 178 days | OS (patient P-13, PS 1): 61 days | PFS (patient P-13, PS 1): 36 days | Kaplan Meier survival curve of OS versus BSC (FIG. 2) (patient group PS (A) 0 and 1): significant life prolongation effect | Survival time extension compared to BSC examples (patient group PS (A) 0 and 1): approximately 7 times | Median of OS (patient group PS (A) 0 and 1, BSC examples 23.5 days): 163 days | Median of OS (patient group PS (B) 2 and 3, BSC examples 22 days): 35 days | Kaplan Meier survival curve of OS versus BSC (FIG. 3) (patient group PS (B) 2 and 3, significant difference not confirmed): tendency to prolong life | OS without versus with peritoneal metastasis (patient group PS (C) 0 and 1): significant life prolongation effect | OS without versus with peritoneal metastasis (patient group PS (D) 2 and 3, significant difference not confirmed): tendency to prolong life
